≈ marks a conversion by molar mass, not a printed value.
Tests used:
[1] = target: T1, R12Y/G67S/Y100I ecDHFR fused to yellow fluorescent protein (ecDHFR.YFP) (Escherichia coli, UniProt P0ABQ4, G67S/R12Y/Y100I); format: cell-based; details: for stabilization of ecDHFR.YFP: 10 μM final concentration, 24 h treatment; for dose-dependent stabilization of ecDHFR.YFP: dose-response, 24 h
recombinant hsDHFR = target: T2, recombinant hsDHFR (Homo sapiens, UniProt P00374); test: Human DHFR; format: biochemical; details: 1 μM compound
T2 sequence (P00374 1-187): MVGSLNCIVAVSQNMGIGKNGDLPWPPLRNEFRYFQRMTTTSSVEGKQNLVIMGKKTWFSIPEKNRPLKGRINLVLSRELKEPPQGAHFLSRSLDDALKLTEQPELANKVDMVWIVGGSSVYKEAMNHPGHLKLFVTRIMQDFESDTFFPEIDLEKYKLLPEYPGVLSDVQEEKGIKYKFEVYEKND

ecDHFR.YFP = ecDHFR.YFP (Escherichia coli, UniProt P0ABQ4, G67S/R12Y/Y100I); format: cell-based; details: for stabilization of ecDHFR after washout: 48 h post washout; for "Off" kinetics compared with TMP: 1 and 10 μM
RN4220 S. aureus = test: Bacterial growth assay, Gram-positive S. aureus; format: cell-based; details: concentrations up to 50 μM
[2] = target: I5F/R12Y/G67S/Y100I ecDHFR.YFP (Escherichia coli, UniProt P0ABQ4, G67S/I5F/R12Y/Y100I); format: cell-based; details: 24 h, vs control ecDHFR DD
[3] = target: R12Y/M16L/G67S/Y100I ecDHFR.YFP (Escherichia coli, UniProt P0ABQ4, G67S/M16L/R12Y/Y100I); format: cell-based; details: 24 h, vs control ecDHFR DD
[4] = target: R12Y/F31L/G67S/Y100I ecDHFR.YFP (Escherichia coli, UniProt P0ABQ4, F31L/G67S/R12Y/Y100I); format: cell-based; details: 24 h, vs control ecDHFR DD
[5] = target: R12Y/G67S/I94L/Y100I ecDHFR.YFP (Escherichia coli, UniProt P0ABQ4, G67S/I94L/R12Y/Y100I); format: cell-based; details: 24 h, vs control ecDHFR DD
[6] = target: T3, ecDHFR DD firefly luciferase (ecDHFR.FLuc) (Escherichia coli, UniProt P0ABQ4, G67S/R12Y/Y100I); format: in vivo, BALB/c mice; details: 1 mg (50 mg/kg) oral gavage, 6 h, mean ± SEM
[7] = target: T3, ecDHFR DD firefly luciferase (ecDHFR.FLuc); format: in vivo, BALB/c mice; details: 1 mg (50 mg/kg) oral gavage, 6 h, mean ± SEM; remark: listed apart in the source
[8] = target: T1, R12Y/G67S/Y100I ecDHFR fused to yellow fluorescent protein (ecDHFR.YFP); format: cell-based; details: 5 μM, 24 h
[9] = system: BW25113 wild-type E. coli; test: Bacterial growth assay, Gram-negative E. coli; details: Escherichia coli, BW25113, read-out: minimal inhibitory concentration [MIC]
Iba1(+) microglia = test: Iba1; format: in vivo, BALB/c mice; details: 1 mg per day for 7 days, oral gavage

With `Nc1ccnc(N)n1` [2,4-DAP, 2,4-diaminopyrimidine] the “stabilization of ecDHFR.YFP” value [1] was “insufficient to stabilize”.

With `[H]/N=C(\N/C(=N/[H])Nc1ccc(Cl)cc1)NC(C)C` [proguanil] the “stabilization of ecDHFR.YFP” value [1] was “no stabilization capabilities”.

For `Nc1nc(N)c2nc(CNc3ccc(C(=O)N[C@@H](CCC(=O)O)C(=O)O)cc3)cnc2n1` [aminopterin], the “dose-dependent stabilization of ecDHFR.YFP” value [1] was “readily stabilized”, the “inhibition of hsDHFR activity” value (recombinant hsDHFR) was “completely inhibited” and the “stabilization of ecDHFR after washout” value (ecDHFR.YFP) was “continued to stabilize ecDHFR”.

With `Nc1ncc(C=O)c(N)n1` [2,4-DAP-5C, 2,4-diaminopyrimidine-5-carbaldehyde] the “stabilization of ecDHFR.YFP” value [1] was “insufficient to stabilize”.

`Nc1nc(N)c2nc(-c3cccc(Cl)c3)c(N)nc2n1` [Epiblastin A] was tested, and the “S. aureus growth inhibition” value (RN4220 S. aureus) was “did not completely inhibit growth” and the “inhibition of hsDHFR activity” value (recombinant hsDHFR) was “intermediately inhibited”.

In the case of `Nc1nc2ccccc2c(=O)[nH]1` [2-AQ-4O, 2-amino-3H-quinazolin-4-one], the “stabilization of ecDHFR.YFP” value [1] is reported as “did not allow for stabilization”.

In the case of `CC1(C)N=C(N)N=C(N)N1OCCCOc1cc(Cl)c(Cl)cc1Cl` [WR99210], the “inhibition of hsDHFR activity” value (recombinant hsDHFR) is reported as “intermediately inhibited”.

`Nc1nc2[nH]cc(CCc3ccc(C(=O)N[C@@H](CCC(=O)O)C(=O)O)cc3)c2c(=O)[nH]1` [pemetrexed] was tested, and the “stabilization of ecDHFR.YFP” value [1] was “did not allow for stabilization”.

In the case of `Nc1nc(N)c2ccccc2n1` [2,4-DAQ, 2,4-diaminoquinazoline], the “responsiveness to stabilization, Ile5 (I5F) mutant” value [2] is reported as “eliminated all responsiveness”, the “effect of Met16 (M16L) mutation on stabilization” value [3] is reported as “did not significantly disrupt” and the “responsiveness to stabilization, Phe31 (F31L) mutant” value [4] is reported as “eliminated all responsiveness”. For the same molecule, the “responsiveness to stabilization, Ile94 (I94L) mutant” value [5] was “eliminated all responsiveness”, the “fold change in luminescence after treatment, eye” value (“fold change in luminescence” below) [6] was 1.6 ± 0.3 fold and the “fold change in bioluminescent signal, liver” value (shortened to “fold change … liver”) [7] was 5.3 ± 2.1 fold.

`C#CCC(Cc1cnc2nc(N)nc(N)c2n1)c1ccc(C(=O)N[C@@H](CCC(=O)O)C(=O)O)cc1` (stereo partly shown) [Pralatrexate] was tested, and the “dose-dependent stabilization of ecDHFR.YFP” value [1] was “readily stabilized”, the “inhibition of hsDHFR activity” value (recombinant hsDHFR) was “completely inhibited” and the “fold change in luminescence” value [6] was 3.5 ± 0.7 fold. The “fold change … liver” value [7] was 7.1 ± 1.3 fold, the “stabilization of ecDHFR after washout” value (ecDHFR.YFP) was “continued to stabilize ecDHFR” and the “time of peak ecDHFR.YFP fluorescence” value (ecDHFR.YFP; all concentrations used (0.1, 1, 10 μM)) was 48 h.

In the case of `Cc1cc(/C=C/c2ccc3cc(N(C)C)ccc3[n+]2C)c(C)n1-c1ccccc1` [pyrvinium pamoate], the “hit follow-up in ARPE-19 cells lacking ecDHFR.YFP” value [8] is reported as “fluorescent false positives”.

With `Cc1nc2ccc(CN(C)c3ccc(C(=O)N[C@@H](CCC(=O)O)C(=O)O)s3)cc2c(=O)[nH]1` [raltitrexed] the “stabilization of ecDHFR.YFP” value [1] was “did not allow for stabilization”.

For `COc1ccc(Cc2cnc(N)nc2N)cc1OC` [diaveridine], the “"Off" kinetics compared with TMP” value (ecDHFR.YFP) was “noticeably quicker” and the MIC [9] was roughly 16.6 µM (≈ 4.32 µg/mL).

`COc1cc(C)c(Cc2cnc(N)nc2N)cc1OC` [ormetoprim] was tested, and the “"Off" kinetics, time after removal” value (ecDHFR.YFP; 0.1 μM) was 2 to 4 h, the “"Off" kinetics compared with TMP” value (ecDHFR.YFP) was “noticeably quicker” and the MIC [9] was roughly 16.6 µM (≈ 4.55 µg/mL).

In the case of `Nc1nc(N)c2nc(-c3ccccc3)c(N)nc2n1` [Triamterene], the “inhibition of hsDHFR activity” value (recombinant hsDHFR) is reported as “intermediately inhibited”, the “fold change in luminescence” value [6] is reported as 3.1 ± 0.6 fold and the “fold change … liver” value [7] is reported as 1.9 ± 0.2 fold.

In the case of `COc1ccc(COc2ccc(Cc3cnc(N)nc3N)cc2OC)cc1` [GW2580], the MIC (RN4220 S. aureus; LB broth, endpoint 19-24 h) is reported as ~ 50 μM, the “fold change in luminescence” value [6] is reported as 8.6 ± 1.7 fold and the “reduction of Iba1(+) microglia, inner retina” value (Iba1(+) microglia) is reported as 33%. For the same molecule, the “reduction of Iba1(+) microglia, outer retina” value (Iba1(+) microglia) was 32%.

From article PMC7245562 (Cell chemical biology, 2020)
